In patent US20070208087A1, “Compounds, compositions and methods for the treatment of inflammatory diseases” (priority 2001, published 2007):
Where “and” joins values, the source holds several entries; their conditions need not be identical. Identical values can stand only once. Like-named read-outs stand apart in the source and are kept apart here.

Experiments:
Type in all cases: cell-based
Microglial cells [1] = assay: Dose response inhibition of NO release from microglia, 0.5-500 μM (Example 9); details: for μM NO release / μM NO release (No LPS average subtracted): 3 replicates
Procedure: This experiment was designed to determine the dose response inhibition of NO release from microglia by bis- and tris-dihydroxyaryl compounds when stimulated with LPS/IFNγ. Earlier experiments have demonostrated that some bis- and tris-dihydroxyaryl compounds are good inhibitors of NO release from microglia. This experiment is designed to determine a dose response for various effective bis- and tris-dihydroxyaryl compounds. Microglial cells were plated into 96 well plates at 1×10^5 cells/ml. At 48 hours, media was exchanged for media containing 10 ng/ml IFNγ and 10 μg/ml LPS and the following compounds 3, 4, 21, 26 and the positive control L-NAME. The doses tested were: 0.5 μM, 1.0 μM, 5.0 μM, 10 μM, 25 μM, 50 μM, 100 μM, 250 μM, and 500 μM. Nitric oxide release was measured after 48 hours using the Griess reaction.

[2] = tested on: EOC 13.31 microglia cells; assay: NO release inhibition in LPS/IFNγ stimulated microglia, concurrent treatment, Griess reaction at 24 hours (Example 6); details: for NO release, Avg / inhibition at 50 µM: 24 hours; for inhibition at 50 µM: Microglia
Procedure, shortened: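 Confluent EOC 13.31 microglia were given 50 μM compound together with 1 pg/ml LPS plus 1 ng/ml IFNγ, or without stimulation. NO release was quantified spectrophotometrically by Griess reaction 24 hours later.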

Microglial cells [3] = assay: Dose response inhibition of NO release from microglia, 0.75-200 μM (Example 8); details: Microglia, 48 h, dose 0.75 μM
Procedure: This experiment was designed to determine dose response inhibition of NO release from microglia by bis- and tris-dihydroxyaryl compounds when stimulated with LPS/IFNγ. […] This experiment is designed to determine a dose response for various bis- and tris-dihydroxyaryl compounds. Microglial cells were plated into 96 well plates at 1×10^5 cells/ml. […] The doses tested were: 0.75 μM, 1.56 μM, 3.125 μM, 6.25 μM, 12.5 μM, 25 μM, 50 μM, 100 μM and 200 μM. Nitric oxide release was measured after 48 hours using the Griess reaction.

[4] = dose 0.5 μM, LPS/IFNγ, 48 hours
[5] = dose 100 μM, LPS/IFNγ, 48 hours
[6] = dose 250 μM, LPS/IFNγ, 48 hours
[7] = dose 500 μM, LPS/IFNγ, 48 hours

## O=C(N[C@@H]1CCCC[C@H]1NC(=O)c1ccc(O)c(O)c1)c1ccc(O)c(O)c1 (relative stereo) [Compound 26, N,N′-bis(3,4-dihydroxybenzoyl)-trans-1,2-diaminocyclohexane]
Microglial cells [1]; Microglia, 48 h, dose 0.5 μM, NO release, LPS/IFNγ, 48 hours, read-out: Avg % Inhibition
  inhibition at 0.5 µM: -4.06%
Microglial cells [1]; Microglia, 48 h, dose 1 μM, NO release, LPS/IFNγ, 48 hours, read-out: Avg % Inhibition
  inhibition at 1 µM: 0.51%
Microglial cells [1]; Microglia, 48 h, dose 5 μM, NO release, LPS/IFNγ
  inhibition at 5 µM: -4.31%
Microglial cells [1]; Microglia, 48 h, dose 10 μM, NO release, LPS/IFNγ
  inhibition at 10 µM: -1.01%
Microglial cells [1]; Microglia, 48 h, dose 25 μM, NO release, LPS/IFNγ
  inhibition at 25 µM: 6.85%
Microglial cells [1]; Microglia, 48 h, dose 50 μM, NO release, LPS/IFNγ
  inhibition at 50 µM: 6.59%
Microglial cells [1]; Microglia, 48 h, dose 100 μM, NO release, LPS/IFNγ, 48 hours, read-out: Avg % Inhibition
  inhibition at 100 µM: 16.2%
Microglial cells [1]; Microglia, 48 h, dose 100 μM, individual replicates, NO release, LPS/IFNγ, 48 hours, read-out: % inhibition
  inhibition at 100 µM: 17.2%
Microglial cells [1]; Microglia, 48 h, dose 250 μM, NO release, LPS/IFNγ, 48 hours, read-out: Avg % Inhibition
  inhibition at 250 µM: 35.2%
Microglial cells [1]; Microglia, 48 h, dose 250 μM, individual replicates, NO release, LPS/IFNγ, 48 hours, read-out: % inhibition
  inhibition at 250 µM: 36.3%
Microglial cells [1]; Microglia, 48 h, dose 500 μM, NO release, LPS/IFNγ, 48 hours, read-out: Avg % Inhibition
  inhibition at 500 µM: 99.5%
Microglial cells [1]; Microglia, 48 h, dose 500 μM, individual replicates, NO release, LPS/IFNγ, 48 hours, read-out: % inhibition
  inhibition at 500 µM: 98.4%
Microglial cells [1]; Microglia, 48 h, highest concentration tested (500 μM), 48 hours, read-out: inhibited NO release by
  inhibition at 500 µM: 99%
Microglial cells [1]; [4]
  μM NO release: 21.667 µM and 19.306 µM and 21.111 µM
  μM NO release (No LPS average subtracted): 19.97 µM and 17.61 µM and 19.41 µM
Microglial cells [1]; dose 0.5 μM, individual replicates, NO release, LPS/IFNγ, 48 hours
  % inhibition: −9.38% and 3.55% and −6.34%
Microglial cells [1]; dose 1 μM, LPS/IFNγ, 48 hours
  μM NO release: 19.722 µM and 19.028 µM and 20.833 µM
  μM NO release (No LPS average subtracted): 18.02 µM and 17.33 µM and 19.13 µM
Microglial cells [1]; dose 1 μM, individual replicates, NO release, LPS/IFNγ, 48 hours
  % inhibition: 1.27% and 5.07% and −4.82%
Microglial cells [1]; dose 5 μM, LPS/IFNγ, 48 hours
  μM NO release: 20.000 µM and 21.528 µM and 20.694 µM
  μM NO release (No LPS average subtracted): 18.30 µM and 19.83 µM and 18.99 µM
Microglial cells [1]; dose 5 μM, individual replicates, NO release, LPS/IFNγ, 48 hours
  % inhibition: −0.25% and −8.62%
Microglial cells [1]; dose 10 μM, LPS/IFNγ, 48 hours
  μM NO release: 20.139 µM and 19.583 µM and 20.694 µM
  μM NO release (No LPS average subtracted): 18.44 µM and 17.88 µM and 18.99 µM
Microglial cells [1]; dose 10 μM, individual replicates, NO release, LPS/IFNγ, 48 hours
  % inhibition: 2.03%
Microglial cells [1]; dose 25 μM, LPS/IFNγ, 48 hours
  μM NO release: 18.194 µM and 18.333 µM and 19.583 µM
  μM NO release (No LPS average subtracted): 16.49 µM and 16.63 µM and 17.88 µM
Microglial cells [1]; dose 25 μM, individual replicates, NO release, LPS/IFNγ, 48 hours
  % inhibition: 9.64% and 8.88% and 2.03%
Microglial cells [1]; dose 50 μM, LPS/IFNγ, 48 hours
  μM NO release: 18.333 μM (2×) and 19.583 μM
  μM NO release (No LPS average subtracted): 16.63 μM (2×) and 17.88 μM
Microglial cells [1]; dose 50 μM, individual replicates, NO release, LPS/IFNγ, 48 hours
  % inhibition: 8.88% (2×) and 2.03%
Microglial cells [1]; [5]
  μM NO release: 16.806 μM (2×) and 17.361 μM
  μM NO release (No LPS average subtracted): 15.11 μM (2×) and 15.66 μM
Microglial cells [1]; dose 100 μM, individual replicates, NO release, LPS/IFNγ, 48 hours
  % inhibition: 14.20%
Microglial cells [1]; [6]
  μM NO release: 13.333 µM and 13.194 µM and 14.028 µM
  μM NO release (No LPS average subtracted): 11.63 µM and 11.49 µM and 12.33 µM
Microglial cells [1]; dose 250 μM, individual replicates, NO release, LPS/IFNγ, 48 hours
  % inhibition: 37.03% and 32.46%
Microglial cells [1]; [7]
  μM NO release: 2.000 µM and 1.500 µM and 1.867 µM
  μM NO release (No LPS average subtracted): 0.30 µM and -0.20 µM and 0.17 µM
Microglial cells [1]; dose 500 μM, individual replicates, NO release, LPS/IFNγ, 48 hours
  % inhibition: 101.10% and 99.09%
[2]; 50 μM, LPS/IFNγ stimulated microglial cells
  inhibition of NO release, in words: very effective inhibitors of NO release
[2]; Compound + LPS/IFNγ, 50 μM
  NO release, Avg: 14.8384 µM
[2]; Compound Only (without LPS/IFNγ), 50 μM
  NO release, Avg: 0.0000 µM
[2]; Compound + LPS/IFNγ, read-out: % inhibition of NO release
  inhibition at 50 µM: 20.3%
[2]; Table 2 summary, LPS/IFNγ, read-out: % Inhibition (summary of inhibition of NO release)
  inhibition at 50 µM: 20.3%
Microglial cells [3]
  inhibition at 0.75 µM: -1.78%
